# Patent US12042501B2, “Metal protoporphyrin for treatment of BK virus” (Renibus Therapeutics, Inc., priority 2021, dated 2024)
# Entries after “also recorded” stand apart in the source; their conditions may differ. Where two headings read alike, the source gives them in different places.
# What was measured:
# [1] = tested on: BK Virus; experiment: BK virus viral neutralization assay (pre-incubation of SnPP with BK virus for 1 hour prior to infection), qPCR; type: cell-based, strain Gardner; conditions: for EC50 / EC90 / SI50 / SI90: experiment 21-bk2-004; for EC50 / EC90: Secondary (Neutralization, pre-incubation of virus), BK Virus Gardner in HFF, qPCR (DNA); for SI50 / SI90: Secondary (Neutralization); for SI50: CC50/EC50; for SI90: CC50/EC90
# [2] = tested on: HFF cells; experiment: Cellular viability by CellTiter-Glo in the BK virus assays
# [3] = as above; conditions: human
# [4] = tested on: BK Virus; experiment: BK virus standard qPCR-based antiviral assay (treatment with SnPP at the time of infection; primary and secondary); type: cell-based, strain Gardner; conditions: for SI50: CC50/EC50; for SI90: CC50/EC90; for Activity: BK
# [5] = tested on: enveloped viruses; conditions: in vitro; Neris et al. 2018; cited from earlier work
# [6] = tested on: non-enveloped polio virus; conditions: in vitro; Neris et al. 2018; cited from earlier work
# [7] = tested on: HPV (HPV11); experiment: HPV primary antiviral assay; type: cell-based, Human Papilloma Virus
# [8] = in vivo
# [9] = tested on: JC virus; experiment: JC virus qPCR antiviral assay in COS7 cells (primary/standard); type: cell-based, 1-4 strain; conditions: for Activity / EC50 / EC90 / SI50: JC; for Activity: Non-enveloped; for SI50: CC50/EC50
# Procedure: (§1) Primary evaluation of compounds against JC virus were also performed by methods similar to those for BK virus primary assays but were done in COS7 cells and utilized the 1-4 strain of JCV in COS7 cells. Viral DNA was quantified using primers 5′-[…]-3′ and 5′-[…]-3′ and probe 5′-6-FAM-[…]-TAMRA-3 together with the plasmid pMP508 to provide a standard curve for absolute quantification. Secondary assays against JCV were also performed in COS7 cells by methods similar to those for BK virus to identify compounds that inhibited adsorption or penetration of the virus. • EC50—compound concentration that reduces viral replication by 50% • EC90—compound concentration that reduces viral replication by 90% • CC50—compound concentration that reduces cell viability by 50% • SI50—CC50/EC50 • SI90—CC50/EC90
# [10] = tested on: JC virus; experiment: JC virus neutralization assay (pre-incubation of virus with RBT-9) in COS7 cells; type: cell-based, 1-4 strain
# Procedure: The present inventors used assays to determine the antiviral activity against various pathogens, including particularly the BK virus. Two conditions were investigated: 1) standard qPCR-based antiviral assay—treatment with SnPP at the time of infection and 2) viral neutralization—pre-incubation of SnPP with BK virus for 1 hour prior to infection. SnPP was tested at concentrations up to 100 μM. Human foreskin fibroblast (HFF) cells were used as the host cell. Viral activity was assessed by real time qPCR and cellular viability was determined by CellTiter-Glo.
# as §1
# [11] = tested on: Adenovirus (Adv); experiment: AdV primary antiviral assay; type: cell-based
# [12] = tested on: CMV; experiment: CMV primary antiviral assay; type: cell-based
# [13] = tested on: acute kidney injury (AKI); conditions: animals; given prior to insult; cited from earlier work
# [14] = experiment 21-bk2-003, Primary (Standard), HFF, CellTiter-Glo
# [15] = experiment 21-bk2-004, Secondary (Neutralization), HFF, CellTiter-Glo
# [16] = experiment 21-bk2-001, Secondary
# [17] = experiment 21-bk2-003, Primary (Standard)
smiles,measurement,setting,value
"Nc1ccn(C[C@@H](CO)OCP(=O)(O)O)c(=O)n1 [Cidofovir, reference compound]",EC50,[1]; Betapolyomavirus hominis,> 100 µM
same,EC90,[1]; Betapolyomavirus hominis,> 100 µM
same,SI50,[1],1
same,SI90,[1],1
same,CC50,[2]; [14],> 100 µM
same,CC50,[2]; [15],> 100 µM
same,CC50,[3],> 100 µM
same,CC50,"[3]; CC50, experiment 20-bk-007, Primary, HFF, CellTiter-Glo",> 150 µM
same,EC90,"[4]; Betapolyomavirus hominis, experiment 20-bk-007, Primary, BK Virus Gardner in HFF, qPCR (DNA)",117 µM
same,EC50,"[4]; Betapolyomavirus hominis, experiment 20-bk-007, Primary, BK Virus Gardner in HFF, qPCR (DNA), read-out: EC50",6.28 µM
same,EC90,"[4]; Betapolyomavirus hominis, experiment 21-bk2-001, Secondary, BK Virus Gardner in HFF, qPCR (DNA)",10.7 µM
same,EC50,"[4]; Betapolyomavirus hominis, experiment 21-bk2-001, Secondary, BK Virus Gardner in HFF, qPCR (DNA), read-out: EC50",0.72 µM
same,EC90,"[4]; Betapolyomavirus hominis, experiment 21-bk2-003, Primary (Standard), BK Virus Gardner in HFF, qPCR (DNA)",17.9 µM
same,EC50,"[4]; Betapolyomavirus hominis, experiment 21-bk2-003, Primary (Standard), BK Virus Gardner in HFF, qPCR (DNA), read-out: EC50",0.13 µM
same,SI50,"[4]; experiment 20-bk-007, Primary",>24
same,SI90,"[4]; experiment 20-bk-007, Primary",>1
same,SI50,[4]; [16],>139
same,SI90,[4]; [16],>9
same,SI50,[4]; [17],>769
same,SI90,[4]; [17],>6
"C=Cc1c(C)c2cc3[nH]c(cc4nc(cc5nc(cc1[nH]2)C(C)=C5CCC(=O)[O-])C(CCC(=O)[O-])=C4C)c(C)c3C=C.[Co+2] [Cobalt protoporphyrin, Co-protoporphyrin IX, reference compound]",antiviral activity against enveloped viruses,[5],broad antiviral activity
same,activity against polio virus,[6],no activity
"C=CC1=C(C)c2cc3[n-]c(cc4[n-]c(cc5nc(cc1n2)C(C)=C5C=C)c(C)c4CCC(=O)O)c(CCC(=O)O)c3C.[Sn+2] [SnPP, Stannous protoporphyrin]",inactivating activity against HPV (in words),[7],not found; also recorded: Minimal to no activity
same,Activity,"[7]; HPV (HPV11), Non-enveloped, Primary",MINIMAL
same,EC50,"[7]; HPV (HPV11), Primary",23.4 µM
same,EC90,"[7]; HPV (HPV11), Primary",> 30 µM
same,SI50,"[7]; HPV (HPV11), Primary, CC50/EC50",5
same,tolerability,[8],well tolerated
same,inactivating activity against JC virus (in words),[9],moderate inactivating activity
same,Activity,[9]; Primary,MODERATE
same,Activity,[9]; Primary (Standard),MODERATE
same,EC50,[9]; Primary,5.38 µM
same,EC90,[9]; Primary,> 30 µM
same,EC50,[9]; Primary (Standard),9.93 µM
same,EC90,[9]; Primary (Standard),63.1 µM
same,SI50,[9]; Primary (Standard),7
same,SI50,[9]; Primary,19
same,Activity,"[1]; BK, Secondary (Neutralization) (21-bk2-004)",MODERATE
same,SI50,[1],15
same,SI90,[1],3
same,EC50,[1],5.4 µM
same,EC90,[1],32.9 µM
same,"concentration not adversely affecting host cell viability, times higher than effective concentration","[2]; CC50 average versus effective concentration, BK virus assays",16.5 times
same,CC50,"[2]; experiment 20-bk-007, Primary, HFF, CellTiter-Glo",62.3 µM
same,CC50,"[2]; experiment 21-bk2-001, Secondary, HFF, CellTiter-Glo",95.8 µM
same,CC50,[2]; [14],82.7 µM
same,CC50,[2]; [15],82.7 µM
same,CC50,"[2]; read-out: 50% cytotoxic concentration (CC50), average, averaged in the in vitro studies, host cell viability",89.2 µM
same,antiviral activity against enveloped viruses,[5],broad antiviral activity
same,Activity,"[10]; Non-enveloped, Secondary (Neutralization, pre-incubation of virus with RBT-9)",MINIMAL
same,EC50,[10]; Secondary (Neutralization),18.9 µM
same,EC90,[10]; Secondary (Neutralization),> 20 µM
same,SI50,"[10]; Secondary (Neutralization), CC50/EC50",4
same,inactivating activity against Adenovirus (in words),[11],not found; also recorded: Minimal to no activity
same,Activity,"[11]; AdV, Non-enveloped, Primary",NONE
same,EC50,"[11]; AdV, Primary",> 30 µM
same,EC90,"[11]; AdV, Primary",> 30 µM
same,SI50,"[11]; AdV, Primary, CC50/EC50",<1
same,EC50,[12],> 6 µM
same,EC90,[12],> 6 µM
same,SI50,[12]; CC50/EC50,<3
same,Activity,[12]; Enveloped,NONE
same,activity against polio virus,[6],no activity
same,protection against acute kidney injury (AKI),[13],protective
same,Activity,[4]; Primary (20-bk-007),MODERATE
same,Activity,[4]; Primary (Standard) (21-bk2-003),MODERATE
same,Activity,[4]; Secondary (21-bk2-001),HIGH
same,EC50,"[4]; averaged in 2 independently run standard qPCR assays, BK virus, read-out: 50% effective concentration (EC50), average",5.5 µM
same,antiviral / inactivating activity against BK virus (in words),[4]; both treatment conditions,broad inactivating activity; also recorded: moderate antiviral activity; also recorded: most significant activity
same,EC90,"[4]; experiment 20-bk-007, Primary, BK Virus Gardner in HFF, qPCR (DNA)",26.6 µM
same,EC50,"[4]; experiment 20-bk-007, Primary, BK Virus Gardner in HFF, qPCR (DNA), read-out: EC50",8.08 µM
same,SI50,"[4]; experiment 20-bk-007, Primary",8
same,SI90,"[4]; experiment 20-bk-007, Primary",2
same,EC90,"[4]; experiment 21-bk2-001, Secondary, BK Virus Gardner in HFF, qPCR (DNA)",30.1 µM
same,EC50,"[4]; experiment 21-bk2-001, Secondary, BK Virus Gardner in HFF, qPCR (DNA), read-out: EC50",2.4 µM
same,SI50,[4]; [16],40
same,SI90,[4]; [16],3
same,EC90,"[4]; experiment 21-bk2-003, Primary (Standard), BK Virus Gardner in HFF, qPCR (DNA)",81.8 µM
same,EC50,"[4]; experiment 21-bk2-003, Primary (Standard), BK Virus Gardner in HFF, qPCR (DNA), read-out: EC50",8.6 µM
same,SI50,[4]; [17],10
same,SI90,[4]; [17],1
